Patent US20080194611A1, “Modulation of Cell Barrier Dysfunction” (priority 2005, published 2008)

Columns and labels:
[1] = tested on: Human pulmonary microvascular endothelial cell; format: cell-based; conditions: for effect of agonist alone on endothelial cell barrier function (TER): HPMVEC
[2] = tested on: PA-I lectin/adhesin expression in P. aeruginosa 27853/PLL-EGFP
[3] = tested on: PA-I lectin/adhesin expression in P. aeruginosa PA27853 and PAO1
[4] = tested on: P. aeruginosa whole cells and membrane fractions; assay: ELISA / immunofluorescence binding of cytokines to P. aeruginosa cells and membrane fractions; parameters: species or system Pseudomonas aeruginosa; conditions: PAO1 membranes; ELISA
Description: IFN-γ direct binding to a protein on the surface of P. aeruginosa, in the course of virulence activation, was also investigated. ELISA binding assays were performed by first coating microtiter plates with P. aeruginosa (strain PAO1), then adding recombinant human IFN-γ (rH IFN-γ), followed by biotin-labeled anti-IFN-γ antibody. […] In order to localize the binding site of IFN-γ to P. aeruginosa (PAO1), equal protein concentrations of membrane and cytosol fractions of P. aeruginosa were prepared and coated onto ELISA microtiter plates.

[5] = tested on: pyocyanin (PCN) production in P. aeruginosa; format: cell-based, Pseudomonas aeruginosa

With `C[C@@H](NC(=O)[C@@H](N)Cc1ccc(O)cc1)C(=O)NCC(=O)N(C)[C@@H](Cc1ccccc1)C(=O)NCCO` [DAMGO, [D-Ala^2, N-MePhe^4, Gly^5-ol]] the “effect of agonist alone on endothelial cell barrier function (TER)” value [1] was “induced endothelial cell barrier disruption in a dose-dependent manner”.

`OC[C@H]1O[C@@H](n2cnc3c(O)ncnc32)[C@H](O)[C@@H]1O` [inosine] was tested, and the “change in PA-I expression over time, magnitude versus adenosine” value [2] was “effect of inosine greater”, the “concentration inducing PA-I expression relative to adenosine” value [2] was 10 fold less than adenosine and the “onset of PA-I expression versus adenosine” value [2] was “at an earlier time point and at lower cell densities (OD) compared to adenosine”.

For adenosine deaminase, the “PA-I expression after adenosine depletion of HIF-1-α-activated Caco-2 media” value ([2]; Caco-2) was “even greater increase in PA-I expression”.

With `C[C@@H](O)C(=O)O` [D-lactate] the “PA-I promoter activity (fluorescence)” value [2] was “had no effect on PA-I promoter activity”.

With IL-8: human cytokine the “PA-I expression, compound alone in media” value [3] was “none of the other compounds alone had any effect”.

For TGF-β, the “binding to P. aeruginosa membrane fractions” value [4] was “No binding was observed”.

For `CC(C)(C)n1nc(-c2ccc(Cl)cc2)c2c(N)ncnc21` [PP2], the “effect on S1P-mediated endothelial cell barrier enhancement” value ([1]; Src family kinase inhibition) was “did not affect S1P-mediated endothelial cell barrier enhancement” and the “effect on agonist-induced barrier disruption” value ([1]; Src family kinase inhibition) was “blocked agonist-induced barrier disruption”.

In the case of `Nc1ncnc2c1ncn2[C@@H]1O[C@H](COP(=O)(O)OP(=O)(O)OP(=O)(O)O)[C@@H](O)[C@H]1O` [ATP], the PA-I expression [2] is reported as “no evident inducing effect”.

For `Nc1ncnc2c1ncn2[C@@H]1O[C@H](COP(=O)(O)OP(=O)(O)O)[C@@H](O)[C@H]1O` [ADP], the PA-I expression [2] was “no evident inducing effect”.

`Nc1ncnc2c1ncn2[C@@H]1O[C@H](COP(=O)(O)O)[C@@H](O)[C@H]1O` [AMP] was tested, and the PA-I expression [2] was “no evident inducing effect”.

In the case of “EGF: human cytokine tested for membrane binding”, the “binding to P. aeruginosa membrane fractions” value [4] is reported as “No binding was observed”.

For `C[C@H](O)C(=O)O` [L-lactate], the “PA-I promoter activity (fluorescence)” value [2] was “had no effect on PA-I promoter activity”.

Thrombin was tested, and the “effect of agonist alone on endothelial cell barrier function (TER)” value [1] was “induced a rapid transient decrease in endothelial cell barrier function”.

In the case of `CC(=O)N[C@H]1C(O)O[C@H](CO)[C@H](O)[C@@H]1O` (stereo partly shown) [GalNac, N-acetylgalactoside], the “PA-I mRNA increase on dense adherence to Caco-2 cells” value ([3]; Caco-2) is reported as “nearly completely abolished” and the “PA-I mRNA induced by Caco-2 cell membrane fractions” value ([3]; Caco-2) is reported as “attenuated”.

`Nc1ncnc2c1ncn2[C@@H]1O[C@H](CO)[C@@H](O)[C@H]1O` [adenosine] was tested, and the “PA-I expression, compound alone in media” value [3] was “none of the other compounds alone had any effect”, the PA-I expression [2] was “increased” and the “PA-I promoter activity (fluorescence)” value [2] was “enhanced fluorescence”. The “exposure time before PA-I promoter activity was observed” value [2] was 6 h.

IL-4: human cytokine was tested, and the “binding to P. aeruginosa membrane fractions” value [4] was “No binding was observed”.

In the case of `COC(=O)c1ccccc1N` [MA, methyl anthranilate], the “effect on U-50,488-enhanced PCN production” value [5] is reported as “inhibited the ability of U-50,488 to enhance PCN production”.

IL-6: human cytokine was tested, and the “PA-I expression, compound alone in media” value [3] was “none of the other compounds alone had any effect”.

For `Oc1ccc2c3c1O[C@H]1c4[nH]c5c(c4C[C@@]4(O)[C@@H](C2)N(CC2CC2)CC[C@]314)C[C@@]1(O)[C@H]2Cc3ccc(O)c4c3[C@@]1(CCN2CC1CC1)[C@H]5O4` [NOR, nor-binaltorphimine], the “effect on U-50,488-enhanced PCN production” value [5] was “attenuates enhanced PCN production” and the “dose that completely inhibits U-50,488-enhanced PCN production” value ([5]; PAO1) was 200 µM.

IL-10: human cytokine was tested, and the “binding to P. aeruginosa membrane fractions” value [4] was “No binding was observed”.

With dynorphin the PCN production [5] was “enhanced PCN production in a dose-dependent manner”.

TNF-α was tested, and the “binding to P. aeruginosa membrane fractions” value [4] was “No binding was observed” and the “PA-I expression, compound alone in media” value [3] was “none of the other compounds alone had any effect”.
